# In patent US9258995B2, “Organ cold storage composition and methods of use” (BOARD OF TRUSTEES OF THE UNIVERSITY OF ARKANSAS, priority 2009, dated 2016):
# Key:
# NRK cells = test: Nitrotyrosine immunocytochemistry during CS; format: cell-based, rat; conditions: 4 h CS, 1 μM
# Experimental: (§1) Normal rat kidney proximal tubular cells (NRK-52E; American Type Culture Collection, Manassas, Va.) were maintained in six-well 100 or 150-mm, or 150-mm plates in a humidified incubator gassed with 5% CO2 and 95% air at 37° C. in DMEM (Invitrogen, Carlsbad, Calif.) containing 5% fetal calf serum (FCS). Cells were grown to 60% confluence and divided into four treatment groups: 1) untreated (Untx), 2) CS, 3) CS+MitoQ, and 4) CS+DecylTPP. Untreated cells remained at 37° C. in DMEM containing 5% FCS (group 1). CS was initiated by washing cells with cold PBS (Invitrogen) twice and storing them in UW/Viaspan solution alone (4 h at 4° C.) (group 2), CS+MitoQ (1 μM) (group 3), or CS+DecylTPP (1 μM) (group 4). In separate experiments, cells were exposed to CS plus RW by replacing UW solution alone or UW solution containing MitoQ or DecylTPP with DMEM containing 5% FCS overnight (18 h at 37° C.).
# NRK cells (groups 1-4) were assessed for nitrotyrosine formation as previously described. […] Nitrotyrosine staining was evaluated and captured with equal exposure times using a Nikon Eclipse 800 microscope (40×oil). Images were quantified by averaging the mean intensity fluorescence of five random cells in three different fields using Nikon N is Elements software. Renal tissue sections were assessed for the presence of nitrotyrosine protein adducts by nitrotyrosine immunohistochemistry. […]
# rat kidneys [1] = test: Periodic acid-Schiff morphological assessment of renal injury during CS; conditions: 4 h CS, 100 μM
# Experimental: All animals were treated according to the National Institutes of Health Guide for the Care and Use of Laboratory Animals and the University of Arkansas for Medical Sciences Institutional Animal Care and Use Committee guidelines. Male Fischer 344 inbred rats (Charles Rivers Laboratories, Inc., Wilmington, Mass.) weighing between 250 and 300 g were anesthetized with ethrane, followed by shaving and prepping with betadine. […] Bulldog clamps were placed on the aorta and vena cava (proximal and distal to the renal vessels) to prevent blood flow to the kidneys. A 22-gauge surgical needle was used to puncture the rat's aorta to flush the renal grafts with saline (10 ml per kidney) using a small catheter. Once the kidneys started to turn light brown (perfusion), another vent was formed in the vena cava to allow blood flow from the kidneys. Once both kidneys were completely flushed, the right kidney was recovered and served as a control (group 1), and the left kidney was exposed to CS alone for 4 h at 4° C. […]
# Renal sections were assessed for tissue injury using the periodic acid-Schiff reaction. […] Morphological evaluation of tubular dilation, brush border loss, and cellular debris/tubular cast formation were performed blindly with light microscopy and assessed semiquantitatively according to the following scoring system: 0, no changes; 1, mild changes; 2, moderate changes, and 3, severe changes.
# [2] = patients with chronic hepatitis C virus infection, phase II clinical trials; cited from earlier work
# rat kidneys [3] = test: Rodent model of warm ischemia/reperfusion (I/R); format: in vivo; conditions: rat kidneys following warm I/R; MitoQ 48 hr oral; 100 μM
# Description: (§2) Rodent models of warm ischemia/reperfusion (I/R) (FIGS. 6-7) and cold renal preservation, as well as renal cell models of cold storage (FIG. 3-5) were used to evaluate the effectiveness of MitoQ in preventing renal damage during ischemia. […] In addition, Mito Q blunted mitochondrial superoxide production (Mitosox Red staining) and respiratory complex dysfunction following cold preservation (FIGS. 4-5).
# [4] = system: mitochondrial respiratory complex II; test: Mitochondrial respiratory complex activity, NRK cell mitochondria after CS; format: cell-based, rat; conditions: NRK cells, 4-h CS, 1 μM
# Experimental: as §1
# (§3) NRK cell and rat kidney mitochondria were isolated by centrifugation on a sucrose density gradient. The activity of mitochondrial respiratory complexes I, II, III, or IV were assayed spectrophotometrically using 100 μg of mitochondrial protein at 30° C. as previously described.
# [5] = system: mitochondrial respiratory complex I; test: as above; format: cell-based, rat; conditions: NRK cells, 4-h CS, 1 μM
# Experimental: as §1, §3
# [6] = system: mitochondrial respiratory complex; test: Mitochondrial respiratory complex activity in kidneys following cold storage (Example 1); design: species or system rat; conditions: following cold preservation (Example 1); MitoQ 100 μM
# Experimental: FIG. 4 depicts a graph showing the effect of MitoQ treatment (100 μM) on mitochondrial respiratory complex activity in kidneys following cold storage *P<0.05 compared with control.
# as §2
structure (smiles),measurement,setting,value
"COC1=C(OC)C(=O)C(CCCCCCCCCC[P+](c2ccccc2)(c2ccccc2)c2ccccc2)=C(C)C1=O [MitoQ, mitoquinone]",attenuation of nitrotyrosine formation,NRK cells,~2 fold
same,renal histology / renal injury (periodic acid-Schiff staining),rat kidneys [1],improved renal histology significantly
same,liver damage,[2],reduce liver damage
same,MnSOD activity,rat kidneys [3],improved
same,complex II inactivation,[4],completely prevented
same,complex I inactivation,[5],completely prevented
same,respiratory complex dysfunction,[6],blunted
